From patent publication US20230257396A1, “MACROCYCLES AND THEIR USE” (BLOSSOMHILL THERAPEUTICS, INC., priority 2020, published 2023)
Positions count from the first letter of the chain named.

Experiments:
Assay in all cases: KINOMEscan kinase binding assay (Eurofins/DiscoveRx), % Ctrl
kinases [1] = biological target: T1, kinases (Homo sapiens, UniProt P00519, F317I); details: 1 μM
T1 construct: purchased Eurofins/DiscoveRx; host or cells: E. coli BL21-derived host (T7 phage display) for most kinases; HEK-293 for the rest
How it was run: (§1)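 Read-out is qPCR of kinase eluted from ligand-coated streptavidin beads after 1 h room-temperature competition with test compound. Values are % Ctrl at the tested concentration, lower meaning tighter binding.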

kinases [2] = biological target: T2, kinases (Homo sapiens, UniProt P00533, G719C); details: 1 μM; target EGFR(G719C)
T2 construct: purchased Eurofins/DiscoveRx; host or cells: E. coli BL21-derived host (T7 phage display) for most kinases; HEK-293 for the rest
How it was run: as §1

kinases [3] = biological target: T3, kinases (Homo sapiens, UniProt P00533, G719S); details: 1 μM; target EGFR(G719S)
T3 construct: purchased Eurofins/DiscoveRx; host or cells: E. coli BL21-derived host (T7 phage display) for most kinases; HEK-293 for the rest
How it was run: as §1

kinases [4] = biological target: T4, kinases (Homo sapiens, UniProt P07949, V804L); details: 1 μM; target RET(V804L)
T4 construct: purchased Eurofins/DiscoveRx; host or cells: E. coli BL21-derived host (T7 phage display) for most kinases; HEK-293 for the rest
How it was run: as §1

kinases [5] = biological target: T5, kinases (Homo sapiens, UniProt P36888, K663Q); details: 1 μM; target FLT3(K663Q)
T5 construct: purchased Eurofins/DiscoveRx; host or cells: E. coli BL21-derived host (T7 phage display) for most kinases; HEK-293 for the rest
T5 sequence (P36888 27-993 K663Q): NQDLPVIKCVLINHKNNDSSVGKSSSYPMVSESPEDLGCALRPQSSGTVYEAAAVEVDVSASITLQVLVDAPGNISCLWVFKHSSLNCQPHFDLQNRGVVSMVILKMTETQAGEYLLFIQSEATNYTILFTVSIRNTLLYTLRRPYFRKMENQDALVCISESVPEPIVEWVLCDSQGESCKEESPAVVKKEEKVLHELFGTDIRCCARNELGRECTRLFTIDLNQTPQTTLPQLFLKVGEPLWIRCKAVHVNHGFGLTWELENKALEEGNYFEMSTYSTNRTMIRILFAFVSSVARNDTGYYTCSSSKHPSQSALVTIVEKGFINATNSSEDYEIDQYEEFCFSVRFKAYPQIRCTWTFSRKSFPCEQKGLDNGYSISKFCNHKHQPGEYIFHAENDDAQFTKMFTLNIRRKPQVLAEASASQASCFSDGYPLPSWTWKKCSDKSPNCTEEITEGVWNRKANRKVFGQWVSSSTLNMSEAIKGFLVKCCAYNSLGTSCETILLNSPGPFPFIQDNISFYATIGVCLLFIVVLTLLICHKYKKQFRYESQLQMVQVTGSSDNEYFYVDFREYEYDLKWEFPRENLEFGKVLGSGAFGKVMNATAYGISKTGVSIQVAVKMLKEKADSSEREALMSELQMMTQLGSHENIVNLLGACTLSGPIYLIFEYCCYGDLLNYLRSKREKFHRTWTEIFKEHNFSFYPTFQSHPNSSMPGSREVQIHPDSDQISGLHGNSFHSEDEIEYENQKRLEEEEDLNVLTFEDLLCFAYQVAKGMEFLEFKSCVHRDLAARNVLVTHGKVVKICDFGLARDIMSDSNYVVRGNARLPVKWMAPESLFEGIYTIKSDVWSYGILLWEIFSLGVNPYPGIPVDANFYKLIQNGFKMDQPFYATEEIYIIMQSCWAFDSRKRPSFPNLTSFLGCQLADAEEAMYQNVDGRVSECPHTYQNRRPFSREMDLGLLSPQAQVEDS
How it was run: as §1

kinases [6] = biological target: T6, kinases (Homo sapiens, UniProt P36888, N841I); details: 1 μM; target FLT3(N841I)
T6 construct: purchased Eurofins/DiscoveRx; host or cells: E. coli BL21-derived host (T7 phage display) for most kinases; HEK-293 for the rest
T6 sequence (P36888 27-993 N841I): T5 sequence (P36888 27-993 K663Q) with Q637K, N815I
How it was run: as §1

T1 sequence (P00519 whole entry F317I): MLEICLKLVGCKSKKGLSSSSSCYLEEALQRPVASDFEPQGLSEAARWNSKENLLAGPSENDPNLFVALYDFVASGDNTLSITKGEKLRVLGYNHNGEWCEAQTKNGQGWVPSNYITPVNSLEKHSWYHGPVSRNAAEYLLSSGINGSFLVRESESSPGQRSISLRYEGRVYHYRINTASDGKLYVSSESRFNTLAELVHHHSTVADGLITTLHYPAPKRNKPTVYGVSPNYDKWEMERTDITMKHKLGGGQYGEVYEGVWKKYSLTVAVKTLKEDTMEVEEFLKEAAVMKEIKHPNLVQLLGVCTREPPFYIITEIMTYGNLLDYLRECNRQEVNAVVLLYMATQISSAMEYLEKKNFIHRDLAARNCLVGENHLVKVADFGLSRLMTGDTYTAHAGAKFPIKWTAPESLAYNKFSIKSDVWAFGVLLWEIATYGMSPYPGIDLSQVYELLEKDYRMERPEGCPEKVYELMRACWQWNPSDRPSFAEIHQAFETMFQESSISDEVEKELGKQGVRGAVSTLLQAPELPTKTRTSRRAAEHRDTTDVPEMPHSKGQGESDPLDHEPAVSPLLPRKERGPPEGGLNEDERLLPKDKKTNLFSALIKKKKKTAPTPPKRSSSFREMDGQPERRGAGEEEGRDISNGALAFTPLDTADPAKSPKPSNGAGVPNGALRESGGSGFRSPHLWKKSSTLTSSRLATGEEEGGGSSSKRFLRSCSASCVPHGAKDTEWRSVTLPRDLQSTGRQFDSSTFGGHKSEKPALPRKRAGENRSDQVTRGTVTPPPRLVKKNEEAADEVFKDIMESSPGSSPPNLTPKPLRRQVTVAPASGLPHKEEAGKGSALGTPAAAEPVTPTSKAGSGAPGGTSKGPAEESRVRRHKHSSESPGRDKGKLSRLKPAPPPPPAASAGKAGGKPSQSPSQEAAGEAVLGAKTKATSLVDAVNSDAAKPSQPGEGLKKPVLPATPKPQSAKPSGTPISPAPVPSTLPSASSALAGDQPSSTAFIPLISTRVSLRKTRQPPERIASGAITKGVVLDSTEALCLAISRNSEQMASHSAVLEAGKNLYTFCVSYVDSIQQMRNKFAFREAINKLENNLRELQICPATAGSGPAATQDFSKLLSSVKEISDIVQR
T4 sequence (P07949 29-1114 V804L): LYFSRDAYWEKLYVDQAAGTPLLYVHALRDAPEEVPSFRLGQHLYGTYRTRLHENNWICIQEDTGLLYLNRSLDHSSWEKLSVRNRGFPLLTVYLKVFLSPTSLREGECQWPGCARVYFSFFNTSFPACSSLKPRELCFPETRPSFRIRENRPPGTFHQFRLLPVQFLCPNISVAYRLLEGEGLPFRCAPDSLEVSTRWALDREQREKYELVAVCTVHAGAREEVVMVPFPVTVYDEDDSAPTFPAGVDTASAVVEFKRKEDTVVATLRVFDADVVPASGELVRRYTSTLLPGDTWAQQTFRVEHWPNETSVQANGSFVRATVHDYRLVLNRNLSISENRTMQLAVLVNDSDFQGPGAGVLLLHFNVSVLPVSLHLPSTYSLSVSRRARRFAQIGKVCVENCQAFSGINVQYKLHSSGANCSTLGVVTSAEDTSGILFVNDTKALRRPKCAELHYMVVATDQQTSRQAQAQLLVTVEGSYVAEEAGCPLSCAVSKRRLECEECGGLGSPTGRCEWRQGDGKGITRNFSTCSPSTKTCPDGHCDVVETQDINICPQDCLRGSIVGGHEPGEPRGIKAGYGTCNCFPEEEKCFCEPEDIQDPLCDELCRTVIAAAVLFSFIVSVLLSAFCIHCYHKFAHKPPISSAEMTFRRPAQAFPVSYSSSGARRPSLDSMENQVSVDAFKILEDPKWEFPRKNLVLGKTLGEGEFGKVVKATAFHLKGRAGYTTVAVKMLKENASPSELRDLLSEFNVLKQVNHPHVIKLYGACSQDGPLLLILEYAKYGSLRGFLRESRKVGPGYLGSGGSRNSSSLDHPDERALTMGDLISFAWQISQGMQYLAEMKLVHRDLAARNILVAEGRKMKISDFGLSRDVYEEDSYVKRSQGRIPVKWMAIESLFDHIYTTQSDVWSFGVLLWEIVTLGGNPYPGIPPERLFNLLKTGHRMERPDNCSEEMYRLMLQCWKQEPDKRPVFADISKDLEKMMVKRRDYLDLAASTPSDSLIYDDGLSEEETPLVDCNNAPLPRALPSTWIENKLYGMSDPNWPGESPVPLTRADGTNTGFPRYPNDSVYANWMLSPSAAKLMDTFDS

## Cc1cc2c([nH]1)/C=C1\C(=O)Nc3cnc(cc31)-c1cnn(C)c1CN(C)CCN(C)C2=O [Ex. 172, [3a(4)Z]-6,9,12,14-tetramethyl-9,10,11,12,13,14-hexahydro-17,1-(azenometheno)pyrazolo[4,3-m]dipyrrolo[3,2-f:3′,4′-i][1,4]diazacyclopentadecine-3,8(2H,5H)-dione]
Kinases [1]; target ABL1(F317I)-nonphosphorylated
  % Ctrl, ABL1(F317I)-nonphosphorylated: 24 % Ctrl
Kinases [1]; target ABL1(F317I)-phosphorylated
  % Ctrl, ABL1(F317I)-phosphorylated: 9.3 % Ctrl
Kinases [2]
  % Ctrl, EGFR(G719C): 100 % Ctrl
Kinases [3]
  % Ctrl, EGFR(G719S): 82 % Ctrl
Kinases [4]
  % Ctrl, RET(V804L): 0.5 % Ctrl
Kinases [5]
  % Ctrl, FLT3(K663Q): 0.6 % Ctrl
Kinases [6]
  % Ctrl, FLT3(N841I): 0 % Ctrl
